Results taken from paper PMC10223552 (Pharmaceuticals, 2023).
Several values for one entry are separate records, joined by “and”; a condition that tells them apart may be missing. Equal entries are not always repeated. Where two headings read alike, the source gives them in different places.

Key:
gpH3R = biological target: T1, gpH3R (Cavia porcellus, UniProt Q9JI35); experiment: Ex vivo assay for histamine H3R antagonists on electrically stimulated guinea pig ileum
T1 construct: from tissue; host or cells: isolated distal ileum of male guinea pigs
Protocol: All newly synthesized compounds were evaluated as H3R antagonists/inverse agonists on the guinea pig ileum (gpH3R), stimulated electrically to induce contractions. The distinct affinity profile and species-dependent pharmacology of H3R ligands are known. […] Therefore, to compare species differences, all newly synthesized compounds were subjected to radioligand displacement assay in membrane fractions of HEK-293 cells stably expressing hH3R.
(§1) Ex vivo assay for histamine H3R and H1R antagonists were measured on the isolated guinea pig ileum stimulated to contractions by histamine. The pA2-values were calculated according to Arunlakshana and Schild. The radioligand-displacement binding assay was performed in membrane fractions of HEK-293 cells stably expressing hH3R. Cell cultivation and membrane preparation was performed according to Kottke et al.. The Ki values were calculated from the IC50 values using the Cheng–Prusoff equation [37]. The statistical calculations were performed on –log(Ki). […] The inhibitory activities of novel ADS compounds were assessed in spectrophotometric Ellman’s assay using AChE from electric eel (eeAChE) and BuChE from horse serum (eqBuChE).
3. Pharmacological assay results.
3.1. Ex vivo assay for histamine H3R receptor antagonists on guinea pig ileum.
Male guinea pigs, weighing 300-400 g were euthanized by a blow to the neck. Following this, a 20-30 cm length of the distal ileum, apart from the terminal 5 cm was rapidly removed and placed in phosphate buffer at room […]
indomethacin (Sigma-Aldrich, St. Louis, MO, USA) (1·10-6 mol/L). The intraluminal content was rinsed and the isolated intestine was cut into 1.5-2 cm segments. The preparations were mounted between two platinum electrodes […]
load of 1.0 g (Hugo Sachs Hebel-Messvorsatz (Tl-2)/HF-modem; Hugo Sachs Elektronik, Hugstetten, Germany) connected to a pen recorder (Kipp & Zonen BD41, Delft, Holland). During an equilibration period of 60 min, the Krebs buffer was changed every 10 min. The preparations were then continuously stimulated at 15-20 V at a frequency of 0.1 Hz for a duration of 0.5 ms, with rectangular-wave electrical pulses (Grass Stimulator S-88; Grass Instruments Co., Quincy, Massachusetts, USA). […] Five minutes […]
before (R)-(−)-α-methylhistamine (RAMH) (Toronto Research Chemicals Inc., North York, Canada), […]
added. The first cumulative concentration-response curve was determined to RAMH (10 nM – 10 mM) at an […]
The second to fourth curve was measured against increasing antagonist concentration (incubation time 20 min). The pA2-values were calculated according to Arunlakshana and Schild. [Br J Pharmacol Chemother. […] Statistical analysis was carried out with the Students’ t-test. In all tests, a p<0.05 was considered statistically significant. The pA2 values were compared with the affinity of thioperamide (Sigma-Aldrich, St. Louis, MO, USA).

[1] = system: MCF-7 breast cancer cells; experiment: cells; assay type: cell-based; conditions: for IC50: Homo sapiens, MCF7, 48 h, read-out: MTT IC50 MCF-7
Protocol: (§2) The cell lines were obtained from American Type Culture Collection (ATCC, Manassas, VA, USA) and were cultured at 37 °C in the presence of 5% CO2 in the atmosphere. […] The cell’s morphology was examined under a Nikon Eclipse Ti inverted phase contrast microscope (Nikon, Tokyo, Japan). The authenticity of tested cell lines was verified by short tandem repeat (STR) genotyping in the Department of Forensic Medicine (Medical University of Lublin, Lublin, Poland).
(§3) Cell viability based on metabolic activity was evaluated with the MTT colorimetric test based on the ability of viable cells to cause the transformation of tetrazolium salts MTT (3-[4,5-dimethylthiazol-2-yl]-2,5)diphenyltetrazolium bromide) into purple formazan, by cellular dehydrogenases. The cells were seeded into 96-well plates at a concentration of 2 × 10^5 cells/mL. […] Doxorubicin was used for comparison as the standard chemotherapeutic agent used in breast cancer treatment. After 48 h of incubation cell cultures were supplemented with 20 µL of 5 mg/mL MTT (Thermofisher, Waltham, MA, USA) stock in PBS (Corning, NY, USA), and the incubation was continued for 4 h at 37 °C. Next, the medium with MTT was removed, and obtained crystals were dissolved in 200 µL of DMSO (dimethyl sulfoxide, Avantor, Gliwice, Poland). The solution absorbency was measured at 570 nm, using a PowerWave™ xs microplate spectrophotometer (BioTek Instruments, Winooski, VT, USA). The experiment was performed three times with three replicates for each concentration of tested compounds.

[2] = system: MDA-MB-231 breast cancer cells; experiment: cells; assay type: cell-based; conditions: Homo sapiens, MDA-MB-231, 48 h, read-out: MTT IC50 MDA-MB-231
Protocol: as §2, §3

hH3R = biological target: T2, hH3R (Homo sapiens, UniProt Q9Y5N1); experiment: biochemical; assay type: binding
T2 construct: expressed in transfected cells
Protocol: as §1, with “All newly synthesized compounds were evaluated as H3R antagonists/inverse agonists on the guinea pig ileum (gpH3R), stimulated electrically to induce contractions. The distinct affinity profile and species-dependent pharmacology of H3R ligands are known. […] Therefore, to compare species differences, all newly synthesized compounds were subjected to radioligand displacement assay in membrane fractions of HEK-293 cells stably expressing hH3R. […] Ex” for “Ex”
3.3 hH3R radioligand displacement binding assay.
The radioligand displacement binding assay was performed in membrane fractions of HEK-293 cells stably expressing hH3R. Cell cultivation and membrane preparation was performed according to Kottke et al. [T. Kottke, […]
radioligand displacement assay, radioactively labeled [3H]Nα-methylhistamine was used at a final concentration […]
The total assay volume was set to 200 µL. The compounds were tested in several appropriate concentrations between 100 µM and 0.1 nM. Pipetting was partly done by Freedom Evo® (Tecan).
The membrane fraction (20 […]
µg/well), test compounds and radiolabeled ligand were incubated for 90 minutes at 25 °C while shaking. The bound radioligand was separated from the free radioligand by filtration through GF/B filters pre-treated with 0.3 % (m/v) polyethyleneimine using a cell harvester. Radioactivity was determined by liquid scintillation counting using a MicroBeta® Trilux (Perkin Elmer). The data was obtained in duplicates in at least three independent experiments. Non-specific binding was subtracted from the raw data to calculate specific-binding values. The evaluation was performed with GraphPad Prism 6.1 (San Diego, CA, USA) using non-linear regression (one-site competition with a logarithmic scale). The Ki values were calculated from the IC50 values using the Cheng-Prusoff […]
equation. [C. […] The statistical calculations […]
were performed on –log(Ki).

T2 sequence (Q9Y5N1 whole entry): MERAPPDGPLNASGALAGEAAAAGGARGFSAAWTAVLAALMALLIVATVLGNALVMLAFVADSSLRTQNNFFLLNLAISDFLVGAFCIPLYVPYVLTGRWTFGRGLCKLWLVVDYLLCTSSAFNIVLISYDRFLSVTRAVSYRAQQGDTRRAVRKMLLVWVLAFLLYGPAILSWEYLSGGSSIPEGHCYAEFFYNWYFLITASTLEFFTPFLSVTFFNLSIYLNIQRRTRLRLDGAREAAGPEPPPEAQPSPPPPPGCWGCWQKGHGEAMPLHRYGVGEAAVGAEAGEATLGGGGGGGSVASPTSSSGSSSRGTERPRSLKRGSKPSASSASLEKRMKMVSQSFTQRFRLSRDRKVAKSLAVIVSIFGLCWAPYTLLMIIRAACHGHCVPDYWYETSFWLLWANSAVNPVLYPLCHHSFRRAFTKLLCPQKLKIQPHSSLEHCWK
T1 sequence (Q9JI35 whole entry): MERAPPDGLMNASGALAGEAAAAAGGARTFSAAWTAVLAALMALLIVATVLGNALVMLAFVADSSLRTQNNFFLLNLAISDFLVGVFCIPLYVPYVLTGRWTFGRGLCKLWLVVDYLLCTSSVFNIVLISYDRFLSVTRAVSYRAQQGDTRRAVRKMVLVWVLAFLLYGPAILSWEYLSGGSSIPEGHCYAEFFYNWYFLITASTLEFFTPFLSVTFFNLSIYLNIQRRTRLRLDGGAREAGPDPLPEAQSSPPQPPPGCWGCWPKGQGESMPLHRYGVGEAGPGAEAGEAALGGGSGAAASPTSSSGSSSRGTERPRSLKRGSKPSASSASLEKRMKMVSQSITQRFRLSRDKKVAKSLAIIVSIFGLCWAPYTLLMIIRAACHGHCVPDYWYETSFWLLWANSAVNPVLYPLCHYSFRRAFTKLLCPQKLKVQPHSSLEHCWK

Structure (SMILES): N=C(N)N(CCCCN1CCN(CCCCCCCOc2ccccc2)CC1)Cc1ccccc1 [ADS1017]
- gpH3R pA2 ± sem (gpH3R; isolated guinea pig ileum, vs RAMH, 20 min): 8.21 ± 0.15
- IC50 [1]: 24.7 µM
- IC50 [2]: 19.9 µM
- Ki (hH3R; mean ± sem, at least three independent experiments, read-out: hH3R -log(Ki) ± sem (converted)): 0.513 µM

Structure (SMILES): Cl.Cl.N=C(NCCCCc1ccc(Cl)cc1)NCCCCN1CCCCC1 [ADS10310]
- Kb (gpH3R): 0.0191 µM
- IC50 [1]: 82.9 µM
- Cell viability (%) ± SD, MCF-7 ([1]; MTT, 48 h, concentrations among 10-125 μM, column of each value cannot be told): 79.57±1.33% and 60.51±1.86% and 57.12±1.54% and 44.21±3.24% and 39.79±2.76%
- IC50 [2]: 115 µM
- Ki (hH3R; hH3R Ki): < 0.2 µM and 0.127 µM
